Experimental data: US12410171B2, “Tropomyosin receptor kinase (TRK) degradation compounds and methods of use” (Cullgen (Shanghai), Inc., priority 2020, dated 2025)

Biological target: T1, TPM3-TRKA fusion protein (Homo sapiens, UniProt P04629)
T1 construct: The resulted chimeric proteins always retain the kinase domain of TRK proteins; TPM3 (fusion partner, N-terminal part of tropomyosin alpha-3, P06753); endogenous in cells; host or cells: KM12 colon cancer cells; the other entry of the earlier key: TPM3 (P06753, Tropomyosin alpha-3 chain)
Assay: TPM3-TRKA fusion protein levels in KM12 cells (Western blot)
Assay type: cell-based
Details: 16 h; TPM3-TRKA degradation in KM12 cells at 10 nM compound, category of percentage degradation; read-out: Degradation (at 10 nM)
Procedure, shortened: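 TPM3-TRKA levels were assessed by Western blot with chemiluminescent detection and band densitometry, after SDS-PAGE of BCA-normalized RIPA lysates. Before lysis, KM12 cells received DMSO, compounds or matched control compounds at concentrations including 0.1, 1, 10 and 100 nM and 0.4–30 nM. Exposures lasted 4 h, 8–16 h or 16 h.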

T1 sequence (P04629 with tags, fused parts or gaps): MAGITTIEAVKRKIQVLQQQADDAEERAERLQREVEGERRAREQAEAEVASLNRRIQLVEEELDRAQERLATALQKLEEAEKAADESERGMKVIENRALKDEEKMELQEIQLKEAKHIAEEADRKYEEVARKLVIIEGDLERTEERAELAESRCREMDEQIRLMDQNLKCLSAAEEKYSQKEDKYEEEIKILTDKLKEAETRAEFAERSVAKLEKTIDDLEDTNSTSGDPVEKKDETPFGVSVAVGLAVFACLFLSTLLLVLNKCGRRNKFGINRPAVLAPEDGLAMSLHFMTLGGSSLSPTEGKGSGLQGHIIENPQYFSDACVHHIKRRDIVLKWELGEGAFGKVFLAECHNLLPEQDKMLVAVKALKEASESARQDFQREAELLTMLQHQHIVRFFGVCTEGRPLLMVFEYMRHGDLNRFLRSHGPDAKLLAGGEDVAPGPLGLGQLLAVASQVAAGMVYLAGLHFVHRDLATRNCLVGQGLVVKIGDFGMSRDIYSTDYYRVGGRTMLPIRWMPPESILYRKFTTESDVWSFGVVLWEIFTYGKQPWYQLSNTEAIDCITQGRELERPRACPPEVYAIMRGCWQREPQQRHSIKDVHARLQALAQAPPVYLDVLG

Row | SMILES | percent degradation of TPM3-TRKA protein at 0.01 µM [%]
1 | O=C1CCC(N2C(=O)c3ccc(NCCCN4CCN(c5cccc(-c6cnc7ccc(N8CCC[C@@H]8c8cccc(F)c8)nn67)n5)CC4)cc3C2=O)C(=O)N1 (stereo partly drawn) [TR-171, 2˜ (2,6-Dioxopiperidin-3-yl)-5-((3-(4-(6-(6-((R)-2-(3-fluorophenyl)pyrrolidin-1-yl)imidazo[1,2-b]pyridazin-3-yl)pyridin-2-yl)piperazin-1-yl)propyl)amino) isoindoline-1,3-dione] | > 80
2 | O=C1CCC(N2C(=O)c3ccc(NCCOCCN4CCN(c5cccc(-c6cnc7ccc(N8CCC[C@@H]8c8cccc(F)c8)nn67)n5)CC4)cc3C2=O)C(=O)N1 (stereo partly drawn) [TR-176, 2-(2,6-Dioxopiperidin-3-yl)-5-((2-(2-(4-(6-(6-((R)-2-(3-fluorophenyl)pyrrolidin-1-yl)imidazo[1,2-b]pyridazin-3-yl)pyridin-2-yl)piperazin-1-yl)ethoxy)ethyl)amino) isoindoline-1,3-dione] | > 80
3 | O=C1CCC(N2C(=O)c3ccc(NCCOCCOCCN4CCN(c5cccc(-c6cnc7ccc(N8CCC[C@H]8c8cccc(F)c8)nn67)n5)CC4)cc3C2=O)C(=O)N1 (stereo partly drawn) [TR-177, 2-(2,6-Dioxopiperidin-3-yl)-5-((2-(2-(2-(4-(6-(6-((S)-2-(3-fluorophenyl)pyrrolidin-1-yl)imidazo[1,2-b]pyridazin-3-yl)pyridin-2-yl)piperazin-1-yl)ethoxy)ethoxy)ethyl)amino) isoindoline-1,3-dione] | > 80
4 | O=C1CCC(N2Cc3cc(CCCN4CCN(c5cccc(-c6cnc7ccc(N8CCC[C@@H]8c8cccc(F)c8)nn67)n5)CC4)ccc3C2=O)C(=O)N1 (stereo partly drawn) [TR-186, 3-(5-(3-(4-(6-(6-((R)-2-(3-fluorophenyl)pyrrolidin-1-yl)imidazo[1,2-b]pyridazin-3-yl)pyridin-2-yl)piperazin-1-yl)propyl)-1-oxoisoindolin-2-yl)piperidine-2,6-dione] | > 80
5 | O=C1CCC(N2Cc3cc(C#CCN4CCN(c5cccc(-c6cnc7ccc(N8CCC[C@@H]8c8cccc(F)c8)nn67)n5)CC4)ccc3C2=O)C(=O)N1 (stereo partly drawn) [TR-188, 3-(5-(3-(4-(6-(6-((R)-2-(3-Fluorophenyl)pyrrolidin-1-yl)imidazo[1,2-b]pyridazin-3-yl)pyridin-2-yl)piperazin-1-yl)prop-1-yn-1-yl)-1-oxoisoindolin-2-yl)piperidine-2,6-dione] | > 80
6 | O=C1CCC(N2Cc3ccc(NCC(=O)N4CCN(c5cccc(-c6cnc7ccc(N8CCC[C@@H]8c8cccc(F)c8)nn67)n5)CC4)cc3C2=O)C(=O)N1 (stereo partly drawn) [TR-189, 3-(6-((2-(4-(6-(6-((R)-2-(3-fluorophenyl)pyrrolidin-1-yl)imidazo[1,2-b]pyridazin-3-yl)pyridin-2-yl)piperazin-1-yl)-2-oxoethyl)amino)-1-oxoisoindolin-2-yl)piperidine-2,6-dione] | > 80
7 | O=C1CCC(N2Cc3cc(NCCN4CCN(c5cccc(-c6cnc7ccc(N8CCC[C@@H]8c8cccc(F)c8)nn67)n5)CC4)ccc3C2=O)C(=O)N1 (stereo partly drawn) [TR-191, 3-(5-((2-(4-(6-(6-((R)-2-(3-fluorophenyl)pyrrolidin-1-yl)imidazo[1,2-b]pyridazin-3-yl)pyridin-2-yl)piperazin-1-yl)ethyl)amino)-1-oxoisoindolin-2-yl)piperidine-2,6-dione] | > 80
8 | O=C1CCC(N2Cc3ccc(NCCN4CCN(c5cccc(-c6cnc7ccc(N8CCC[C@@H]8c8cccc(F)c8)nn67)n5)CC4)cc3C2=O)C(=O)N1 (stereo partly drawn) [TR-196, 3-(6-((2-(4-(6-(6-((R)-2-(3-fluorophenyl)pyrrolidin-1-yl)imidazo[1,2-b]pyridazin-3-yl)pyridin-2-yl)piperazin-1-yl)ethyl)amino)-1-oxoisoindolin-2-yl)piperidine-2,6-dione] | 50 to 80
9 | O=C1CCC(N2Cc3ccc(C#CC(=O)N4CCN(c5cccc(-c6cnc7ccc(N8CCC[C@@H]8c8cccc(F)c8)nn67)n5)CC4)cc3C2=O)C(=O)N1 (stereo partly drawn) [TR-202, 3-(6-(3-(4-(6-(6-((R)-2-(3-Fluorophenyl)pyrrolidin-1-yl)imidazo[1,2-b]pyridazin-3-yl)pyridin-2-yl)piperazin-1-yl)-3-oxoprop-1-yn-1-yl)-1-oxoisoindolin-2-yl)piperidine-2,6-dione] | 50 to 80
10 | O=C1CCC(N2Cc3cc(C#CC(=O)N4CCN(c5cccc(-c6cnc7ccc(N8CCC[C@@H]8c8cccc(F)c8)nn67)n5)CC4)ccc3C2=O)C(=O)N1 (stereo partly drawn) [TR-203, 3-(5-(3-(4-(6-(6-((R)-2-(3-fluorophenyl)pyrrolidin-1-yl)imidazo[1,2-b]pyridazin-3-yl)pyridin-2-yl)piperazin-1-yl)-3-oxoprop-1-yn-1-yl)-1-oxoisoindolin-2-yl)piperidine-2,6-dione] | 50 to 80
11 | O=C1CCC(N2C(=O)c3ccc(CCN4CCN(c5cccc(-c6cnc7ccc(N8CCC[C@@H]8c8cccc(F)c8)nn67)n5)CC4)cc3C2=O)C(=O)N1 (stereo partly drawn) [TR-204, 2-(2,6-dioxopiperidin-3-yl)-5-(2-(4-(6-(6-((R)-2-(3-fluorophenyl)pyrrolidin-1-yl)imidazo[1,2-6]pyridazin-3-yl)pyridin-2-yl)piperazin-1-yl)ethyl)isoindoline-1,3-dione] | > 80
12 | O=C1CCC(N2Cc3cc(C#CC4CCN(c5cccc(-c6cnc7ccc(N8CCC[C@@H]8c8cccc(F)c8)nn67)n5)CC4)ccc3C2=O)C(=O)N1 (stereo partly drawn) [TR-208, 3-(5-((1-(6-(6-((R)-2-(3-fluorophenyl)pyrrolidin-1-yl)imidazo[1,2-b]pyridazin-3-yl)pyridin-2-yl)piperidin-4-yl)ethynyl)-1-oxoisoindolin-2-yl)piperidine-2,6-dione] | 50 to 80
13 | O=C1CCC(N2Cc3cc(NCC4CN(c5cccc(-c6cnc7ccc(N8CCC[C@@H]8c8cccc(F)c8)nn67)n5)C4)ccc3C2=O)C(=O)N1 (stereo partly drawn) [TR-210, 3-(5-(((1-(6-(6-((R)-2-(3-Fluorophenyl)pyrrolidin-1-yl)imidazo[1,2-b]pyridazin-3-yl)pyridin-2-yl)azetidin-3-yl)methyl)amino)-1-oxoisoindolin-2-yl)piperidine-2,6-dione] | 50 to 80
14 | COc1ccc(CN(CCN2CCN(c3cccc(-c4cnc5ccc(N6CCC[C@@H]6c6cccc(F)c6)nn45)n3)CC2)c2ccc3c(c2)C(=O)N(C2CCC(=O)NC2=O)C3=O)cc1 (stereo partly drawn) [TR-214, 2-(2,6-Dioxo-3-piperidyl)-5-(2-(4-(6-(6-((2R)-2-(3-fluorophenyl)pyrrolidin-1-yl)imidazo[1,2-b]pyridazin-3-yl)-2-pyridyl)piperazin-1-yl)ethyl-((4-methoxyphenyl)methyl)amino) isoindoline-1,3-dione] | < 50
15 | Cn1c(=O)n(C2CCC(=O)NC2=O)c2cccc(NCCN3CCN(c4cccc(-c5cnc6ccc(N7CCC[C@@H]7c7cccc(F)c7)nn56)n4)CC3)c21 (stereo partly drawn) [TR-216, 3-[4-[2-[4-[6-[6-[(2R)-2-(3-Fluorophenyl)pyrrolidin-1-yl]imidazo[1,2-b]pyridazin-3-yl]-2-pyridyl]piperazin-1-yl]ethylamino]-3-methyl-2-oxo-benzimidazol-1-yl]piperidine-2,6-dione] | > 80
16 | Cn1c(=O)n(C2CCC(=O)NC2=O)c2cccc(NCCCN3CCN(c4cccc(-c5cnc6ccc(N7CCC[C@@H]7c7cccc(F)c7)nn56)n4)CC3)c21 (stereo partly drawn) [TR-217, 3-[4-[3-[4-[6-[6-[(2R)-2-(3-Fluorophenyl)pyrrolidin-1-yl]imidazo[1,2-b]pyridazin-3-yl]-2-pyridyl]piperazin-1-yl]propylamino]-3-methyl-2-oxo-benzimidazol-1-yl]piperidine-2,6-dione] | > 80

Same assay, conditions: KM12, 16 h, read-out: Degradation (at 10 nM)

Row | SMILES | percent degradation of TPM3-TRKA protein at 0.01 µM [%]
17 | O=C1CCC(N2C(=O)c3ccc(CCCN4CCN(c5cccc(-c6cnc7ccc(N8CCC[C@@H]8c8cccc(F)c8)nn67)n5)CC4)cc3C2=O)C(=O)N1 (stereo partly drawn) [TR-172, 2-(2,6-dioxopiperidin-3-yl)-5-(3-(4-(6-(6-((R)-2˜ (3-fluorophenyl)pyrrolidin-1-yl)imidazo[1,2-b]pyridazin-3-yl)pyridin-2-yl)piperazin-1-yl)propyl)isoindoline-1,3-dione] | > 80
18 | O=C1CCC(N2C(=O)c3ccc(OCCN4CCN(c5cccc(-c6cnc7ccc(N8CCC[C@@H]8c8cccc(F)c8)nn67)n5)CC4)cc3C2=O)C(=O)N1 (stereo partly drawn) [TR-173, 2˜ (2,6-dioxopiperidin-3-yl)-5-(2-(4-(6-(6-((R)-2-(3-fluorophenyl)pyrrolidin-1-yl)imidazo[1,2-b]pyridazin-3-yl)pyridin-2-yl)piperazin-1-yl)ethoxy) isoindoline-1,3-dione] | > 80
19 | O=C1CCC(N2C(=O)c3ccc(N4CCC(N5CCN(c6cccc(-c7cnc8ccc(N9CCC[C@@H]9c9cccc(F)c9)nn78)n6)CC5)CC4)cc3C2=O)C(=O)N1 (stereo partly drawn) [TR-182, 2-(2,6-dioxopiperidin-3-yl)-5-(4-(4-(6-(6-((R)-2-(3-fluorophenyl)pyrrolidin-1-yl)imidazo[1,2-b]pyridazin-3-yl)pyridin-2-yl)piperazin-1-yl)piperidin-1-yl)isoindoline-1,3-dione] | > 80
20 | O=C1CCC(N2C(=O)c3ccc(N4CC(N5CCN(c6cccc(-c7cnc8ccc(N9CCC[C@@H]9c9cccc(F)c9)nn78)n6)CC5)C4)cc3C2=O)C(=O)N1 (stereo partly drawn) [TR-184, 2-(2,6-dioxopiperidin-3-yl)-5-(3-(4-(6-(6-((R)-2-(3-fluorophenyl)pyrrolidin-1-yl)imidazo[1,2-b]pyridazin-3-yl)pyridin-2-yl)piperazin-1-yl)azetidin-1-yl)isoindoline-1,3-dione] | > 80
